According to PMC8007111, “Novel Potent Muscarinic Receptor Antagonists: Investigation on the Nature of Lipophilic Substituents in the 5- and/or 6-Positions of the 1,4-Dioxane Nucleus” (Journal of Medicinal Chemistry, 2020):

Test system: MSCs from mouse bone marrow
Assay: Carbachol-induced MSC viability (MTS assay)
Format: cell-based
Conditions: pre-incubation 1 h, then carbachol 10^–10 M for 24 h
Method: It is well established that bone marrow MSC behavior is influenced by a variety of signaling systems. In context, cholinergic intramural stimuli and, in particular, muscarinic signals orchestrate MSCs viability and commitment.[11],[12] Considering also the pluripotent MSC nature and their contribution to bone, blood, and systemic homeostasis,[53] viability studies on MSCs were performed to determine the functional profile of 3b, the most interesting compound in this series. […] Successively, the efficacy of 3b in contrasting cell viability induced by the well-known mAChR agonist carbachol was evaluated. […] Further research on the intracellular mechanistic outcomes of 3b on MSCs remains mandatory.
The in vitro studies were performed by using bone marrow MSCs as a model. Male BALB/c mice (Harlan Italy SrL, Milano, Italy) (8 weeks old; body weight ∼24.5 g; n = 4) were kept in a laminar-flow cage in a standardized environmental condition. Food (Harlan, Italy), and water was supplied ad libitum. Mice were sacrificed by CO2 narcosis and cervical dislocation in accordance with the recommendations of the Italian Ethical Committee and under the supervision of authorized investigators. Long bones (femurs and tibiae) were dissected and cleaned from skin, muscle, and connective tissues as much as possible. Bones were placed in a culture dish containing sterile PBS. Then, the bone cavity was flushed in DMEM with a syringe in order to collect the bone marrow cells into a 50 mL sterile tube. […] After 2 weeks of initiating culture, cells were washed with PBS, detached by trypsinization, counted, and plated at the density of 5,000 cells/well in 96 culture plates (Costar Corp., Milano, Italy) in DMEM containing 10% HIFCS, penicillin, and streptomycin.
MSCs were treated with compound 3b (from 10^–4 to 10^–10 M) for 24 h. […] At the end of each procedure, the MSCs viability was measured by MTS assay. […] The quantity of the formazan product was directly proportional to the number of living cells in culture. The colored formazan was measured by reading the absorbance at 490 nm using a […] plate reader.

With `C[N+](C)(C)C[C@@H]1COC[C@](c2ccccc2)(C2CCCCC2)O1.[I-]` (relative stereo) [3b, 1-((2R*,6R*)-6-Cyclohexyl-6-phenyl-1,4-dioxan-2-yl)-N,N,N-trimethylmethanaminium Iodide] the “effect on carbachol-induced MSC viability” value was “able to contrast the increase of carbachol-induced MSC viability”.
